Measurements reported in patent publication US20160220569A1, “CDK4/6 Inhibitor Dosage Formulations For The Protection Of Hematopoietic Stem And Progenitor Cells During Chemotherapy” (G1 Therapeutics, Inc., priority 2015, published 2016).

Assay: Blood cell counts in mice after 5-Fluorouracil with or without Compound 1
Format: in vivo
Settings: Compound 1 100 mg/kg before 5FU
Procedure: Blood cell counts for neutrophils, lymphocytes, red blood cells (RBCs), and platelets were conducted.

CN1CCN(c2ccc(Nc3ncc4cc5n(c4n3)C3(CCCCC3)CNC5=O)nc2)CC1 [Compound 1, 2′-((5-(4-methylpiperazin-1-yl)pyridin-2-yl)amino)-7′,8′-dihydro-6′H-spiro[cyclohexane-1,9′-pyrazino[1′,2′:1,5]pyrrolo[2,3-d]pyrimidin]-6′-one]
significantly less loss: loss of lymphocytes upon 5FU chemotherapy | loss of neutrophils upon 5FU chemotherapy | loss of platelets upon 5FU chemotherapy | loss of red blood cells upon 5FU chemotherapy
